What was measured:
[1] = biological target: Potassium-transporting ATPase (Oryctolagus cuniculus); assay: Compound was tested in vitro for H+/K+ ATPase activity in rabbit stomach preparations
Rattus norvegicus = assay: Compound was tested in vivo for gastric antisecretory activity after 5 hr of pylorus ligation of SD rat; assay type: functional; details: Stomach

COc1cccc2c1ncc1c(C)cn(-c3ccccc3C)c12
IC50 [1]: 8.2 µM
ED50 (Rattus norvegicus): 13 mg/kg

Cc1ccccc1-n1cc(C)c2cnc3c(OC(F)(F)F)cccc3c21
IC50 [1]: > 100 µM

COc1cccc2c1ncc1c(C(C)C)cn(-c3ccccc3C)c12
IC50 [1]: 17 µM
ED50 (Rattus norvegicus): 90 mg/kg

COc1cccc2c1ncc1c(CCO)cn(-c3ccc(F)cc3C)c12
IC50 [1]: > 100 µM

Cc1ccccc1-n1cc(C)c2cnc3c(O)cccc3c21
IC50 [1]: 4.8 µM
ED50 (Rattus norvegicus): 58 mg/kg

COc1cccc2c1nc(C)c1c(C)cn(-c3ccccc3C)c12
IC50 [1]: > 100 µM

CCc1cn(-c2ccc(F)cc2C)c2c1cnc1c(OC)cccc12
IC50 [1]: 5.7 µM
ED50 (Rattus norvegicus): 13 mg/kg

COc1cccc2c1ncc1c(C)cn(-c3ccc(F)cc3C)c12
IC50 [1]: 14 µM
ED50 (Rattus norvegicus): 10 mg/kg

COc1cccc2c1ncc1c(CO)cn(-c3ccccc3C)c12
IC50 [1]: 100 µM

CCc1cn(-c2ccc(O)cc2C)c2c1cnc1c(OC)cccc12
IC50 [1]: 4.8 µM
ED50 (Rattus norvegicus): 59 mg/kg

COc1cccc2c1ncc1c(C)cn(-c3ccc(OC(C)=O)cc3C)c12
IC50 [1]: 3.4 µM
ED50 (Rattus norvegicus): 47 mg/kg

COc1cccc2c1ncc1c(CCO)cn(-c3ccccc3C)c12
IC50 [1]: 80 µM

COc1cccc2c1ncc1c(C(C)C)cn(-c3ccc(O)cc3C)c12
IC50 [1]: 7.2 µM
ED50 (Rattus norvegicus): 49 mg/kg

CCCC(=O)c1cnc2c(OC)cccc2c1Nc1ccccc1C
IC50 [1]: 18 µM
ED50 (Rattus norvegicus): 20 mg/kg

COc1ccc2[nH]c([S+]([O-])Cc3ncc(C)c(OC)c3C)nc2c1 (stereo unspecified) [OMEPRAZOLE]
ED50 (Rattus norvegicus): 3.2 mg/kg

COc1cccc2c1nc(C)c1c(C)cn(-c3ccc(F)cc3C)c12
IC50 [1]: 72 µM

COc1cccc2c1ncc1c(CO)cn(-c3ccc(F)cc3C)c12
IC50 [1]: > 100 µM

Source: ChEMBL document CHEMBL1131995, “Synthesis and pharmacological profile of 1-aryl-3-substituted pyrrolo[3,2-c]quinolines” (Bioorg Med Chem Lett, 1999)
